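In this assay, cells in 96-well plates receive the compound at five concentrations for 48 hours. Endpoints are linearly interpolated between the surrounding concentrations. GI50 = concentration required for 50% inhibition of growth.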 Active and inactive are the calls of the source. Rule as the data show it: active = GI50 up to about 1.1 µM and inactive = higher.
Key:
Assay in all cases: DTP human tumour cell line panel, 48 h
SF-295 = system: SF-295
SK-MEL-5 = system: SK-MEL-5
LOX IMVI = system: LOX IMVI
DU-145 = system: DU-145
IGROV-1 = system: IGROV-1
EKVX = system: EKVX
UACC-62 = system: UACC-62
SNB-75 = system: SNB-75
UACC-257 = system: UACC-257
NCI/ADR-RES = system: NCI/ADR-RES
RXF 393 = system: RXF 393
OVCAR-8 = system: OVCAR-8
SK-OV-3 = system: SK-OV-3
SF-268 = system: SF-268
OVCAR-4 = system: OVCAR-4
HCC 2998 = system: HCC 2998
A549 = system: A549
HL-60 = system: HL-60
OVCAR-5 = system: OVCAR-5
CAKI-1 = system: CAKI-1
HT-29 = system: HT-29
A498 = system: A498
SNB-19 = system: SNB-19
MDA-MB-435 = system: MDA-MB-435
HOP-92 = system: HOP-92
786-0 = system: 786-0
UO-31 = system: UO-31
MDA-N = system: MDA-N
U-251 = system: U-251
SK-MEL-28 = system: SK-MEL-28
COLO 205 = system: COLO 205
M14 = system: M14
BT-549 = system: BT-549
NCI-H23 = system: NCI-H23
KM12 = system: KM12
ACHN = system: ACHN
SK-MEL-2 = system: SK-MEL-2
SW-620 = system: SW-620
HCT-116 = system: HCT-116
T47D = system: T47D
SF-539 = system: SF-539
MDA-MB-231 = system: MDA-MB-231
TK-10 = system: TK-10
HCT-15 = system: HCT-15
OVCAR-3 = system: OVCAR-3
MOLT-4 = system: MOLT-4
HOP-62 = system: HOP-62
SN12C = system: SN12C
NCI-H226 = system: NCI-H226
NCI-H460 = system: NCI-H460
PC-3 = system: PC-3
NCI-H522 = system: NCI-H522
CCRF-CEM = system: CCRF-CEM
RPMI-8226 = system: RPMI-8226
SR = system: SR
Hs-578T = system: Hs-578T
K562 = system: K562
MCF7 = system: MCF7
Malme-3M = system: Malme-3M

**Q.** What does the source list for `CC(=O)/C(=C/NC(=S)N/N=C1\C(=O)Nc2ccccc21)C(=O)Nc1ccccc1C`?
**A.** GI50 (SF-295): > 100 µM (inactive); GI50 (SK-MEL-5): 65.3 µM (inactive); GI50 (LOX IMVI): 63.8 µM (inactive); GI50 (DU-145): 47.1 µM (inactive); GI50 (IGROV-1): 95.3 µM (inactive); GI50 (EKVX): 70.6 µM (inactive); GI50 (UACC-62): > 100 µM (inactive); GI50 (SNB-75): 52.4 µM (inactive); GI50 (UACC-257): > 100 µM (inactive); GI50 (NCI/ADR-RES): > 100 µM (inactive); GI50 (RXF 393): 83.8 µM (inactive); GI50 (OVCAR-8): > 100 µM (inactive); GI50 (SK-OV-3): > 100 µM (inactive); GI50 (SF-268): > 100 µM (inactive); GI50 (OVCAR-4): > 100 µM (inactive); GI50 (HCC 2998): > 100 µM (inactive); GI50 (A549): > 100 µM (inactive); GI50 (HL-60): 41 µM (inactive); GI50 (OVCAR-5): > 100 µM (inactive); GI50 (CAKI-1): 47.4 µM (inactive); GI50 (HT-29): > 100 µM (inactive); GI50 (A498): 57.7 µM (inactive); GI50 (SNB-19): > 100 µM (inactive); GI50 (MDA-MB-435): > 100 µM (inactive); GI50 (HOP-92): > 100 µM (inactive); GI50 (786-0): 82.2 µM (inactive); GI50 (UO-31): 44.3 µM (inactive); GI50 (MDA-N): > 100 µM (inactive); GI50 (U-251): > 100 µM (inactive); GI50 (SK-MEL-28): > 100 µM (inactive); GI50 (COLO 205): > 100 µM (inactive); GI50 (M14): > 100 µM (inactive); GI50 (BT-549): > 100 µM (inactive); GI50 (NCI-H23): > 100 µM (inactive); GI50 (KM12): 98.9 µM (inactive); GI50 (ACHN): 96.2 µM (inactive); GI50 (SK-MEL-2): > 100 µM (inactive); GI50 (SW-620): > 100 µM (inactive); GI50 (HCT-116): 95.3 µM (inactive); GI50 (T47D): 27.5 µM (inactive); GI50 (SF-539): > 100 µM (inactive); GI50 (MDA-MB-231): 91.6 µM (inactive); GI50 (TK-10): > 100 µM (inactive); GI50 (HCT-15): > 100 µM; GI50 (OVCAR-3): 75.2 µM (inactive); GI50 (MOLT-4): > 100 µM (inactive); GI50 (HOP-62): > 100 µM (inactive); GI50 (SN12C): > 100 µM (inactive); GI50 (NCI-H226): > 100 µM (inactive); GI50 (NCI-H460): > 100 µM (inactive)

**Q.** What does the source list for `COc1ccc2c(c1)C(=O)/C(=C/c1ccccc1)C2`?
**A.** GI50 (SF-295): > 100 µM (inactive); GI50 (SK-MEL-5): 29.4 µM (inactive); GI50 (DU-145): > 100 µM (inactive); GI50 (PC-3): 68.9 µM (inactive); GI50 (IGROV-1): > 100 µM (inactive); GI50 (UACC-62): 52.6 µM (inactive); GI50 (SNB-75): 46.5 µM (inactive); GI50 (NCI/ADR-RES): 24.7 µM (inactive); GI50 (RXF 393): 43.9 µM (inactive); GI50 (OVCAR-8): > 100 µM (inactive); GI50 (SK-OV-3): > 100 µM (inactive); GI50 (OVCAR-4): 55.7 µM (inactive); GI50 (HL-60): > 10 µM (inactive); GI50 (OVCAR-5): 52.5 µM (inactive); GI50 (CAKI-1): 20.2 µM (inactive); GI50 (NCI-H522): 45.2 µM (inactive); GI50 (CCRF-CEM): 11.3 µM (inactive); GI50 (HT-29): 31.6 µM (inactive); GI50 (A498): 44 µM (inactive); GI50 (RPMI-8226): 45.7 µM (inactive); GI50 (SR): 76.7 µM (inactive); GI50 (SNB-19): 95.1 µM (inactive); GI50 (MDA-MB-435): 63.2 µM (inactive); GI50 (HOP-92): 59.7 µM (inactive); GI50 (Hs-578T): > 100 µM (inactive); GI50 (UO-31): 49.7 µM (inactive); GI50 (MDA-N): 39 µM (inactive); GI50 (U-251): > 100 µM (inactive); GI50 (SK-MEL-28): > 100 µM (inactive); GI50 (M14): 27 µM (inactive); GI50 (BT-549): 27.2 µM (inactive); GI50 (NCI-H23): 42.4 µM (inactive); GI50 (KM12): > 100 µM (inactive); GI50 (SK-MEL-2): 74.1 µM (inactive); GI50 (K562): 29 µM (inactive); GI50 (HCT-15): 69 µM; GI50 (OVCAR-3): 39.2 µM (inactive); GI50 (MOLT-4): 16.3 µM (inactive); GI50 (HOP-62): 29.6 µM (inactive); GI50 (SN12C): > 100 µM (inactive); GI50 (NCI-H226): 25 µM (inactive); GI50 (MCF7): 7.36 µM (inactive); GI50 (NCI-H460): 34 µM (inactive); GI50 (Malme-3M): > 100 µM (inactive)

**Q.** `CC(=O)NC(C)(C)C1CCC(C)=C(c2ccccc2)C1` (stereo not drawn) was tested. Which GI50 (SF-295) did it give?
**A.** > 100 µM (inactive)

**Q.** What about the GI50 (SK-MEL-5) of the same compound?
**A.** > 100 µM (inactive)

**Q.** And the GI50 (LOX IMVI)?
**A.** > 100 µM (inactive)

**Q.** And the GI50 (DU-145)?
**A.** > 100 µM (inactive)

**Q.** What about the GI50 (PC-3) of the same compound?
**A.** > 100 µM (inactive)

**Q.** What about the GI50 (IGROV-1) of the same compound?
**A.** > 100 µM (inactive)

**Q.** And the GI50 (EKVX)?
**A.** > 100 µM (inactive)

**Q.** What about the GI50 (UACC-62) of the same compound?
**A.** > 100 µM (inactive)

**Q.** And the GI50 (SNB-75)?
**A.** 53.6 µM (inactive)

**Q.** And the GI50 (UACC-257)?
**A.** > 100 µM (inactive)

**Q.** What about the GI50 (OVCAR-8) of the same compound?
**A.** > 100 µM (inactive)

**Q.** What about the GI50 (SK-OV-3) of the same compound?
**A.** > 100 µM (inactive)

**Q.** And the GI50 (SF-268)?
**A.** > 100 µM (inactive)

**Q.** What about the GI50 (OVCAR-4) of the same compound?
**A.** > 100 µM (inactive)

**Q.** What about the GI50 (HCC 2998) of the same compound?
**A.** > 100 µM (inactive)

**Q.** What about the GI50 (A549) of the same compound?
**A.** > 100 µM (inactive)

**Q.** And the GI50 (HL-60)?
**A.** 31.1 µM (inactive)

**Q.** What about the GI50 (OVCAR-5) of the same compound?
**A.** > 100 µM (inactive)

**Q.** And the GI50 (NCI-H522)?
**A.** 88.7 µM (inactive)

**Q.** What about the GI50 (CCRF-CEM) of the same compound?
**A.** 96.8 µM (inactive)

**Q.** What about the GI50 (HT-29) of the same compound?
**A.** > 100 µM (inactive)

**Q.** What about the GI50 (SR) of the same compound?
**A.** > 100 µM (inactive)

**Q.** What about the GI50 (SNB-19) of the same compound?
**A.** > 100 µM (inactive)

**Q.** What about the GI50 (MDA-MB-435) of the same compound?
**A.** > 100 µM (inactive)

**Q.** What about the GI50 (HOP-92) of the same compound?
**A.** 19.5 µM (inactive)

**Q.** What about the GI50 (786-0) of the same compound?
**A.** > 100 µM (inactive)

**Q.** And the GI50 (UO-31)?
**A.** > 100 µM (inactive)

**Q.** And the GI50 (MDA-N)?
**A.** > 100 µM (inactive)

**Q.** And the GI50 (U-251)?
**A.** 80 µM (inactive)

**Q.** What about the GI50 (SK-MEL-28) of the same compound?
**A.** > 100 µM (inactive)

**Q.** What about the GI50 (COLO 205) of the same compound?
**A.** > 100 µM (inactive)

**Q.** What about the GI50 (M14) of the same compound?
**A.** > 100 µM (inactive)

**Q.** And the GI50 (BT-549)?
**A.** > 100 µM (inactive)

**Q.** What about the GI50 (NCI-H23) of the same compound?
**A.** > 100 µM (inactive)

**Q.** And the GI50 (KM12)?
**A.** > 100 µM (inactive)

**Q.** And the GI50 (SW-620)?
**A.** > 100 µM (inactive)

**Q.** What about the GI50 (HCT-116) of the same compound?
**A.** 87.5 µM (inactive)

**Q.** What about the GI50 (T47D) of the same compound?
**A.** > 100 µM (inactive)

**Q.** And the GI50 (SF-539)?
**A.** > 100 µM (inactive)

**Q.** What about the GI50 (K562) of the same compound?
**A.** 42 µM (inactive)

**Q.** What about the GI50 (MDA-MB-231) of the same compound?
**A.** 55.8 µM (inactive)

**Q.** And the GI50 (TK-10)?
**A.** > 100 µM (inactive)

**Q.** What about the GI50 (HCT-15) of the same compound?
**A.** 74 µM

**Q.** And the GI50 (OVCAR-3)?
**A.** > 100 µM (inactive)

**Q.** And the GI50 (MOLT-4)?
**A.** > 100 µM (inactive)

**Q.** What about the GI50 (HOP-62) of the same compound?
**A.** > 100 µM (inactive)

**Q.** What about the GI50 (SN12C) of the same compound?
**A.** > 100 µM (inactive)

**Q.** And the GI50 (MCF7)?
**A.** > 100 µM (inactive)

**Q.** What about the GI50 (NCI-H460) of the same compound?
**A.** > 100 µM (inactive)
